Experiment [1] has as its system secreted TNF-α. Briefly: DSV-induced secreted TNF-α, Western blot of RAW cell culture supernatant. The experiment is classed as cell-based, murine. Particulars: 200 μM, 3 h before DSV 4 h; DSV alone 38.09±5.188. As for the experimental part: FIG. 12. LY294002 inhibits DSV-induced activation of PI3K/Akt/TNF pathway. (A) RAW cells were treated with LY at either 10 μM or 50 μM for one hour before infection with DSV for four hours. Cells were lysed and protein lysate was prepared. Fifty μg of protein lysate was separated on SDS-PAGE and analyzed for p-Akt, Akt, TNF, iNOS, p-p70S6K, and total p70S6K by Western blotting. Actin was used as a loading control. (B) Quantification of p-Akt-Akt Western blot. (C) Quantification of p-P70/P70 Western blot. (D) Quantification of TNF-α/actin Western blot. (E) Post-infection, RAW cell culture supernatant was collected and proteins were precipitated using ethanol precipitation. Proteins were resuspended in PBS and 50 μg of proteins were loaded on SDS-PAGE and secreted TNF-α was detected using TNF-α antibody. Actin was used as a loading control.
(§1) RAW 264.7 murine macrophage-like cells were grown in DMEM+10% FBS without any use of antibiotics or antimycotics. Cells were grown at 37° C. in a humidified incubator with 5% CO2. Prior to the day of infection, 8×10^5 cells were plated in a six-well plate and infected with DSV at multiplicity of infection 20 (MOI 20) for various times. For drug treatments, cells were incubated with LY294002 at 10 μM or 50 μM for one hour followed by DSV infection for 30 minutes or four hours. For TL2-C29 treatment, cells were incubated with the inhibitor at 200 μM for three hours followed by infection with DSV for four hours.
Cells were lysed in Lysis buffer containing protease and phosphatase inhibitors (Thermo Fisher Scientific, Inc., Waltham, MA) for 20 minutes at 4° C. Lysates were centrifuged at 12,000 rpm for five mins at 4° C. and supernatants were collected. Protein concentration in the supernatants was determined with Bradford reagent (Bio-Rad Laboratories, Inc., Hercules, CA). 50 μg of protein samples were run on SDS-PAGE (4-20% tris-glycine) and transferred to nitrocellulose membranes. Membranes were blocked in 5% milk in PBS-T (0.1% Tween 20) for 30 minutes followed by overnight incubation in primary antibodies in cold room. […]
In general terms: In western blotting, separated proteins are transferred to a membrane and probed.

Experiment [2] concerns p-Akt/Akt. Put plainly: DSV-induced Akt phosphorylation, Western blot in RAW cells. The experiment is classed as cell-based, murine. Particulars: 200 μM, 3 h before DSV 4 h; DSV alone 3.18±0.30. As for the experimental part: as §1
(§2) Cells were lysed in Lysis buffer containing protease and phosphatase inhibitors (Thermo Fisher Scientific, Inc., Waltham, MA) for 20 minutes at 4° C. Lysates were centrifuged at 12,000 rpm for five mins at 4° C. and supernatants were collected. Protein concentration in the supernatants was determined with Bradford reagent (Bio-Rad Laboratories, Inc., Hercules, CA). 50 μg of protein samples were run on SDS-PAGE (4-20% tris-glycine) and transferred to nitrocellulose membranes. Membranes were blocked in 5% milk in PBS-T (0.1% Tween 20) for 30 minutes followed by overnight incubation in primary antibodies in cold room. All antibodies except iNOS were purchased from Cell Signaling Technology (Danvers, MA): Actin (4970), p-AktS473(4060), p-Akt T308(13038), Akt (9272), p-P70S6K (9205), P70S6K (2708, TNF-α (19948). iNOS antibody was purchased from Abcam (Cambridge United Kingdom). Antibodies were diluted as recommended by the manufacturer. The following day, blots were washed with PBS-T and incubated with secondary antibodies (Cell Signaling Technology, Danvers, MA) at room temperature for one hour (dilution of 1:2000) and developed using enhanced chemiluminescence HRP signal (Thermo Fisher Scientific, Inc., Waltham, MA).
(§3) All graphs were generated using PRISM 9.4.1 GraphPad Software Inc., San Diego, CA). Data is plotted as Mean±SEM relative to control. Each experiment was conducted at least three independent times. […]

In experiment [3] the test system is TNF-α. Put plainly: DSV-induced cellular TNF-α expression, Western blot in RAW cells. The experiment is classed as cell-based, murine. The note with it: 200 μM, 3 h before DSV 4 h; DSV alone 24.67±2.51. The method, then: as §1, §2, §3
Experiment [4] has as its system iNOS. Put plainly: DSV-induced iNOS expression, Western blot in RAW cells. Particulars: 200 μM, 3 h before DSV 4 h; DSV alone 30.25±6.82. The class given is cell-based, murine. The method, then: as §1, §2, §3
In experiment [5] the test system is Snail. Briefly: DSV-induced Snail protein expression by Western blot. The class given is cell-based, Human. The note with it: 100 nM, 2 h before DSV MOI 20 for 24 h; DSV alone 7.14±0.73. The method, then: FIG. 16. Rapamycin reduces DSV-induced Snail protein expression. Polarized Caco-2 cells were treated with 100 nM rapamycin for two hours, followed by DSV infection (MOI 20) for 24 hours. Cells were harvested and lysed. (A) Protein lysate was analyzed for Snail expression by Western blotting. (B) Quantitation of Snail expression from Western blot in (A). DSV: 7.14±0.73; DSV+Rapamycin: 3.10±0.74, **p<0.01.
Human colonic epithelial cells Caco-2 were purchased from the American Type Culture Collection (ATCC, Manassas, VA). Cells were grown in DMEM+20% FBS+penicillin and streptomycin (Thermo Fisher Scientific, Inc., Waltham, MA). Cells were grown at 37° C. in a humidified incubator with 5% CO2. To allow polarization and differentiation, cells were seeded at a density of 5×10^3 cells/well in 12-well 0.4 μm trans-well inserts for three weeks. Twenty-four hours before infection, growth medium was replaced with colorless medium (DMEM+20^0/o FBS) without antibiotics. […]
Cells were lysed in lysis buffer (Thermo Fisher Scientific, Inc., Waltham, MA; catalog #87787) containing protease and phosphatase inhibitors (Thermo Fisher Scientific, Inc., Waltham, MA; catalog #1861281) for 20 minutes at 4° C. with shaking. […] Protein concentration in the supernatants was determined with Bradford reagent (Bio-Rad Laboratories, Inc., Hercules, CA). […]

Experiment [6] has as its system PI3K/Akt pathway. Briefly: DSV-induced PI3K/Akt signaling with receptor antagonists. The experiment is classed as cell-based, murine. Particulars: pretreatment of cells before DSV. The method, then:
PI3k/Akt pathway is activated downstream of receptors such as RTKs and G-protein coupled receptors and also by TLRs activation which is often observed in the case of infections with various bacteria. Thus, cells were treated with different TLR antagonists to check for the involvement of TLR 2, TLR 4, or TLR 5 in DSV-mediated activation of PI3K/Akt pathway. […] DSV-induced phosphorylation of AKT was inhibited by C29 (DSV:3.18±0.30; DSV+C29: 1.58±0.29, p<0.05, FIG. 14, FIG. 15A). […] PI3K/Akt is classically activated by a vast number of stimuli through receptor tyrosine kinases (RTK). Thus, tryphostin AS1478, a common tyrosine kinase inhibitor, was used as an antagonist to EGFR signaling to test whether DSV-induced PI3k/Akt/TNF/iNOS pathway was dependent on RTK-mediated signaling.

For experiment [7], the system named is sulfate reducing bacteria. Particulars: batch culture; cited from earlier work.

Molecules are shown by their SMILES.

For the compound `COc1cccc(C=Nc2cccc(C(=O)O)c2C)c1O` [C29], the “secreted TNF-α, normalized to control” value in experiment [1] came out at 1.103±0.03408. In experiment [2], the “p-Akt/Akt, normalized to control” value amounted to 1.58±0.29. Also, the “cellular TNF-α protein, normalized to control” value in experiment [3] came to 8.57±2.81. Also, the “iNOS protein expression, normalized to control” value in experiment [4] worked out at 2.32±1.48.

On to `CO[C@H]1C[C@@H]2CC[C@@H](C)[C@@](O)(O2)C(=O)C(=O)N2CCCC[C@H]2C(=O)O[C@H]([C@H](C)C[C@@H]2CC[C@@H](O)[C@H](OC)C2)CC(=O)[C@H](C)/C=C(\C)[C@@H](O)[C@@H](OC)C(=O)[C@H](C)C[C@H](C)/C=C/C=C/C=C/1C` [Rapamycin, rapamycin], for which the “Snail expression from Western blot” value in experiment [5] amounted to 3.10±0.74.

Consider `c1ccc(Cn2c(Sc3ncnc4c3sc3ncccc34)nnc2-c2ccncc2)cc1` [TH1020], for which the “effect on DSV-induced PI3K/Akt signaling” value in experiment [6] is given as “Neither TLR4 antagonist TLR-IN-C34 nor TLR5 antagonist TH1020 had any discernable effect”.

For the compound `CC(=O)N[C@H]1[C@@H](OC(C)C)O[C@H](COC(C)=O)[C@@H](OC(C)=O)[C@@H]1OC(C)=O` [TLR-IN-C34], the “effect on DSV-induced PI3K/Akt signaling” value in experiment [6] is recorded as “Neither TLR4 antagonist TLR-IN-C34 nor TLR5 antagonist TH1020 had any discernable effect”.

In the case of `[Mg+2].[O-][O-]` [magnesium peroxide (MgO2), magnesium peroxide], in experiment [7], the “number of sulfate reducing bacteria” value was “inhibited”, the “sulfate reducing rate (SRR)” value is reported as “inhibited” and the sulfide concentration result is “inhibited”.

In the case of `COc1cc2ncnc(Nc3cccc(Cl)c3)c2cc1OC` [tryphostin AS1478], the “effect on DSV-induced PI3K/Akt signaling” value in experiment [6] is “No inhibition”.

The values above are taken from patent US20240207216A1, “COMPOSITIONS AND METHOD FOR TREATING GUT PERMEABILITY CAUSED BY HYDROGEN SULFIDE PRODUCING BACTERIA” (UNM RAINFOREST INNOVATIONS, priority 2022, published 2024).
